Results from EP1900728A1 (Genecare Research Institute Co., Ltd, priority 2005, dated 2006).

How the values were obtained:
[1] = test system: ICAM-1 expression in HT-29 cells; test: Measurement of ICAM-1 expressing activity (TNFα-induced ICAM-1 expression, cell ELISA); assay type: cell-based; conditions: Homo sapiens, Table 6, cell activity inhibition test by method (3), read-out: EVALUATION (IC50 class, inhibition of cell activity)
Experimental: Method 2: Measurement of ICAM-1 expressing activity
2.0 x 10^4 HT-29 cells (ATCC) were plated onto a 96-well plate, and the cells were cultured for 48 hours using a McCoy' 5A medium (GIBCO) containing 10% inactivated fetal calf serum. The culture medium was removed, a culture medium containing a compound to be evaluated (final DMSO concentration of 0.5%) was added, and this was incubated at 37°C for 30 minutes. Thirty ng/mL of human TNFα (GIBCO) was added, and this was incubated at 37°C for 4 hours. After washing once with a washing solution (PBS containing 0.05% Tween 20), ice-cooled methanol was added, and this was left on ice for 10 minutes and then fixed. After removing methanol, PBS containing 1% BSA was added, and blocking was performed by letting this stand at room temperature for 30 minutes. Anti-ICAM-1 antibody (Santa Cruz Biotechnology) was added, and this was left to stand at room temperature for 1 hour. After washing with the washing solution, POD-labeled secondary antibody was added, and this was left to stand at room temperature for 30 minutes. This was washed, 100 µL of 100 mM citric acid buffer (pH4.2) containing 1 mM TMBZ and 0.03% H2O2 was added, and this was reacted at room temperature for 15 minutes. The reaction was terminated with 100 µL of 2 N H2SO4, and the absorbance at 450 nm was measured using ARVO-HTS (Perkin Elmer).
When cells are stimulated with TNFα, IκBα is degraded after ubiquitination resulting in the activation of NFκB and the promotion of the expression of adhesion factor ICAM-1. Therefore, the suppression of ICAM-1 expression described above serves as an indicator to determine the effectiveness of the compound in the cells.

[2] = target: T1, IκBα ubiquitinating enzyme (SCF complex: ROC1, Cullin1, Skp1, His-TrCP1; with E1, UbcH5b) (Homo sapiens, UniProt P62877+P63208+Q13616+Q9Y297); test: Measurement of ubiquitinating enzyme activity (IκBα ubiquitination, time-resolved fluorescence with Eu(K)-labeled ubiquitin and XL665-labeled anti-GST antibody); assay type: biochemical; conditions: enzyme activity inhibition test, method (1), Table 5; read-out: EVALUATION
T1 construct: His (polyhistidine); made in house; host or cells: insect cells (baculovirus) for the SCF complex and His-E1; E. coli for His-UBCH5b
T1 sequence (Q9Y297 whole entry): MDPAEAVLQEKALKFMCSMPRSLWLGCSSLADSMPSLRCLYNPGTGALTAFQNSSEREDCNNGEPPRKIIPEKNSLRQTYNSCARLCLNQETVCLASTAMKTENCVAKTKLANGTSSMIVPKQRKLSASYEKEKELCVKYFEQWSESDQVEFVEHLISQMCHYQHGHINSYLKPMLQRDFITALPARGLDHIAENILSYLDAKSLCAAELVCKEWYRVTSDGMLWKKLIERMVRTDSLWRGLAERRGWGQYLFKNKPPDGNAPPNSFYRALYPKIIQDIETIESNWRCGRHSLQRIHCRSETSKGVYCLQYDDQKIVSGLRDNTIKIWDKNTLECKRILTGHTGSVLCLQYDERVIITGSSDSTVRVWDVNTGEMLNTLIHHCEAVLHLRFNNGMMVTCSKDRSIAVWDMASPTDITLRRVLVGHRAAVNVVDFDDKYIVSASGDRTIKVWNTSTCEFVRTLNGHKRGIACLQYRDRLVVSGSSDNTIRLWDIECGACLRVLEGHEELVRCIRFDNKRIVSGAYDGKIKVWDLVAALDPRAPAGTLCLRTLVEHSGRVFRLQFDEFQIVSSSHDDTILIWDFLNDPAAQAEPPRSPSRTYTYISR
T1 sequence (Q13616 whole entry): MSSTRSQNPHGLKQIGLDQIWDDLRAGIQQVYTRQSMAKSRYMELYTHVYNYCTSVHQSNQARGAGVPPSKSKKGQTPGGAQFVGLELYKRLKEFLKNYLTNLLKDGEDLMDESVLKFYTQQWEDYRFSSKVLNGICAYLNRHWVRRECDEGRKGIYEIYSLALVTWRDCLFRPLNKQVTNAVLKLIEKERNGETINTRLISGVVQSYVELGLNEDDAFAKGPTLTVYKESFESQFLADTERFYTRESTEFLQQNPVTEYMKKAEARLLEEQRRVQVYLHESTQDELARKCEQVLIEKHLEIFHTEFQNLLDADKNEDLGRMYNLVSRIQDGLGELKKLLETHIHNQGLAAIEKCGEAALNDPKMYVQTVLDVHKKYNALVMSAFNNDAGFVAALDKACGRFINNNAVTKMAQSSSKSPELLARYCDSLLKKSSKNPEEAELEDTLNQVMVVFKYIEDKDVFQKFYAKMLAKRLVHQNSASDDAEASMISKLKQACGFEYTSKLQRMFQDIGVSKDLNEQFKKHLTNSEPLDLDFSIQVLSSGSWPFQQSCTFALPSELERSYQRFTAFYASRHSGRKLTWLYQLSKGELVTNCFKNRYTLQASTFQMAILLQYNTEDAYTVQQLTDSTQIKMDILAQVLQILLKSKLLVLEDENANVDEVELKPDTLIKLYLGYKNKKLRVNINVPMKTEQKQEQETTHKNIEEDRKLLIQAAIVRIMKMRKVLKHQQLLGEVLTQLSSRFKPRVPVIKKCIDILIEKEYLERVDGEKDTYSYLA
T1 sequence (P63208 whole entry): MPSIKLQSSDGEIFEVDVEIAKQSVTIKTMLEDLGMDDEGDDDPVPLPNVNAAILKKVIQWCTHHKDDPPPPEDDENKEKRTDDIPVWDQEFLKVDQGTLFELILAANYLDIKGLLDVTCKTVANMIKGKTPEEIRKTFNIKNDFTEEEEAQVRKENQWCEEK
T1 sequence (P62877 whole entry): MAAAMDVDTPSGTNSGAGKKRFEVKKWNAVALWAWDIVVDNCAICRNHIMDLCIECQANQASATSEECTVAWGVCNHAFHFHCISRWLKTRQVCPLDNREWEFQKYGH
Method in brief: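 Human SCF complex with E1 and UbcH5b ubiquitinated GST-IκBα pre-phosphorylated by IKKβ (2 mM ATP, pH 7.4, 1 h, RT), with Eu(K)-ubiquitin, 30 min RT. Stopped with EDTA, XL665 anti-GST added for 2 h; 665/620 nm TR-FRET ratio. % inhibition versus no-compound control and no-SCF blank gave IC50.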

Row | IC50 [1] [µM] | IC50 [2] [µM] | Structure (SMILES)
1 | < 40 | < 10 | CC1=NN(c2ccc(C(=O)O)cc2)C(=O)/C1=C\c1cc2ccccc2o1 [Compound 429]
2 | < 40 | < 10 | CC1=NN(c2ccc(C(=O)O)cc2)C(=O)/C1=C\c1ccc(NC(=O)c2ccccc2)cc1 [Compound 544]
3 | < 40 | < 10 | CC1=NN(c2cccc(C(=O)N3CCCC(C(=O)O)C3)c2)C(=O)/C1=C\c1ccc2[nH]ccc2c1 (centres unmarked) [Compound 376]
4 | < 40 | 10 to 20 | COCC1=NN(c2ccc(C(=O)O)cc2)C(=O)/C1=C\c1ccc2c(c1)OCO2 [Compound 464]
5 | 10 to 20 | < 10 | CC1=NN(c2cccc(C(=O)O)c2)C(=O)/C1=C\c1ccc(N2CCN(C(=O)c3ccccc3)CC2)cc1 [Compound 440]
6 | < 40 | < 10 | CC1=NN(c2ccc(C(=O)O)cc2)C(=O)/C1=C\c1cccc(O)c1 [Compound 542]
7 | < 40 | 10 to 20 | CC1=NN(c2cccc(C(=O)O)c2)C(=O)/C1=C\c1ccc(-c2ccccc2F)o1 [Compound 486]
8 | < 40 | < 10 | CC1=NN(c2cccc(C(=O)O)c2)C(=O)/C1=C\c1ccc2c(ccn2C(=O)c2cccn2C)c1 [Compound 532]
9 | 10 to 20 | < 10 | O=C(O)c1cccc(N2N=C(c3ccoc3)/C(=C/c3ccc(-c4ccccc4F)o3)C2=O)c1 [Compound 484]
10 | < 40 | < 10 | CC1=NN(c2cccc(C(=O)O)c2)C(=O)/C1=C\c1ccc2c(ccn2C(=O)c2ccco2)c1 [Compound 531]
11 | 10 to 20 | < 10 | CCOC(=O)c1ccc(COc2ccc(/C=C3\C(=O)N(c4ccc(C(=O)O)cc4)N=C3C)cc2OC)o1 [Compound 392]
12 | < 10 | < 10 | Cn1cc(-c2ccc(/C=C3\C(=O)N(c4ccc(C(=O)O)cc4)N=C3c3ccoc3)o2)cn1 [Compound 489]
13 | – | 10 to 20 | COc1cc(/C=C2\C(=O)N(c3cccc(C(=O)O)c3)N=C2C)ccc1OCC1CC1 [Compound 393]
14 | – | < 10 | CC1=NN(c2ccc(C(=O)N3CCC(CO)CC3)cc2)C(=O)/C1=C\c1ccc2[nH]ccc2c1 [Compound 361]
15 | – | < 40 | COCCC1=NN(c2cccc(C(=O)O)c2)C(=O)/C1=C\c1ccc(-c2ccccc2F)o1 [Compound 526]
16 | – | 10 to 20 | CCCCC1=NN(c2cccc(C(=O)O)c2)C(=O)/C1=C\c1ccc2c(c1)OCCO2 [Compound 470]
17 | – | < 40 | COc1ncccc1/C=C1\C(=O)N(c2cccc(C(=O)O)c2)N=C1C [Compound 506]
18 | – | < 10 | CC1=NN(c2cccc(C(=O)N3CCCCC3)c2)C(=O)/C1=C\c1ccc2[nH]ccc2c1 [Compound 369]
19 | – | 10 to 20 | CC1=NN(c2cccc(C(=O)O)c2)C(=O)/C1=C\c1ccc(N2CCC(N3CCCC3)CC2)cc1 [Compound 435]
20 | – | < 10 | CC1=NN(c2cccc(C(=O)O)c2)C(=O)/C1=C\c1ccc(N2CCN(C(=O)c3ccoc3)CC2)cc1 [Compound 444]
21 | – | 10 to 20 | CC1=NN(c2ccc(C(=O)O)cc2)C(=O)C1=Cc1ccc(N2CCNCC2)cc1 [Compound 451]
22 | – | < 10 | CC1=NN(c2cccc(C(=O)O)c2)C(=O)/C1=C\c1ccc(N2CCN(S(C)(=O)=O)CC2)cc1 [Compound 447]

Second part, the compound before the results:

Row | Structure (SMILES) | IC50 [1] [µM] | IC50 [2] [µM]
23 | CC1=NN(c2cccc(S(N)(=O)=O)c2)C(=O)/C1=C\c1cc2ccccc2o1 [Compound 164] | < 10 | < 10
24 | O=C(O)c1ccc(N2N=C(c3ccoc3)/C(=C/c3ccc(N4CCCC4)cc3)C2=O)cc1 [Compound 248] | 10 to 20 | < 10
25 | CCCCC1=NN(c2ccc(C(=O)O)cc2)C(=O)/C1=C\c1ccc(-n2cncn2)cc1 [Compound 306] | 10 to 20 | 10 to 20
26 | O=C(O)c1ccc(N2N=C(c3ccoc3)/C(=C/c3ccc(-n4ccnc4)cc3)C2=O)cc1 [Compound 250] | < 40 | < 10
27 | COc1cc(/C=C2\C(=O)N(c3ccc(C(=O)O)cc3)N=C2c2ccoc2)ccc1O [Compound 244] | 10 to 20 | < 10
28 | CC1=NN(c2ccc(C(=O)O)cc2)C(=O)/C1=C\c1ccc2c(c1)OCCO2 [Compound 259] | < 10 | < 10
29 | CCCCC1=NN(c2ccc(C(=O)O)cc2)C(=O)/C1=C\c1ccc(N2CCCC2)cc1 [Compound 301] | < 10 | 10 to 20
30 | CN1CCN(c2ccc(/C=C3\C(=O)N(c4ccc(C(=O)O)cc4)N=C3C3CC3)cc2)CC1 [Compound 321] | < 40 | < 10
31 | O=C1/C(=C\c2ccc3c(c2)OCCO3)C(Cc2ccccc2)=NN1c1ccccc1 [Compound 29] | 10 to 20 | 10 to 20
32 | COc1ccc(C2=NN(c3ccc(C(=O)O)cc3)C(=O)/C2=C\c2ccc(N3CCCC3)cc2)cc1OC [Compound 281] | 10 to 20 | < 10
33 | CCCCC1=NN(c2ccc(C(=O)O)cc2)C(=O)/C1=C\c1ccc(-n2cccn2)cc1 [Compound 305] | 10 to 20 | < 10
34 | COC(=O)N1CCN(c2ccc(/C=C3\C(=O)N(c4ccc(C(=O)O)cc4)N=C3Cc3ccccc3)cc2)CC1 [Compound 266] | 10 to 20 | < 10
35 | O=C(O)c1ccc(N2N=C(c3ccoc3)/C(=C/c3cccc4nccnc34)C2=O)cc1 [Compound 329] | 10 to 20 | 10 to 20
36 | O=C(O)c1ccc(N2N=C(c3ccoc3)/C(=C/c3ccc(-c4ccccc4F)o3)C2=O)cc1 [Compound 246] | < 10 | < 10
37 | CC1=NN(c2ccc(C(=O)O)cc2)C(=O)/C1=C\c1ccc(CO)o1 [Compound 255] | 10 to 20 | < 10
38 | COc1cc(/C=C2\C(=O)N(c3ccccc3)N=C2C2CC2)ccc1O [Compound 69] | 10 to 20 | 10 to 20
39 | CC1=NN(c2ccc(S(N)(=O)=O)cc2)C(=O)/C1=C\c1ccc(-c2ccccc2)cc1 [Compound 117] | 10 to 20 | < 10
40 | CC1=NN(c2ccc(S(N)(=O)=O)cc2)C(=O)/C1=C\c1ccc2c(c1)OCCO2 [Compound 108] | < 40 | 10 to 20

Row | Structure (SMILES) | IC50 [1] [µM] | IC50 [2] [µM]
41 | CCCCC1=NN(c2ccccc2)C(=O)/C1=C\c1ccc(CO)o1 [Compound 56] | 10 to 20 | 10 to 20
42 | CCCCC1=NN(c2ccc(C(=O)O)cc2)C(=O)/C1=C\c1ccc2c(c1)OCCO2 [Compound 303] | < 10 | < 10
43 | Cn1cc(-c2ccc(/C=C3\C(=O)N(Cc4cccc(O)c4)N=C3c3ccoc3)o2)cn1 [Compound 188] | < 40 | 10 to 20
44 | CC1=NN(c2ccc(S(N)(=O)=O)cc2)C(=O)C1=Cc1ccc(O)cc1 [Compound 218] | < 40 | 10 to 20
45 | COCC1=NN(c2ccc(C(=O)O)cc2)C(=O)/C1=C\c1nccs1 [Compound 237] | < 40 | 10 to 20
46 | O=C1/C(=C\c2ccc3c(c2)OCCO3)C(c2ccncc2)=NN1c1ccccc1 [Compound 46] | – | < 40
47 | CC1=NN(c2cccc(S(N)(=O)=O)c2)C(=O)/C1=C\c1ccc2occc2c1 [Compound 143] | – | < 40
48 | CC1=NN(c2cccc(S(N)(=O)=O)c2)C(=O)C1=Cc1cccc2[nH]ccc12 [Compound 137] | – | 10 to 20
49 | COc1ccc(C2=NN(c3ccc(C(=O)O)cc3)C(=O)C2=Cc2ccc(N3CCN(C)CC3)cc2)cc1OC [Compound 285] | – | 10 to 20
50 | CC1=NN(c2ccccc2)C(=O)/C1=C\c1ccc(N2CCN(C)CC2)cc1 [Compound 99] | – | 10 to 20
51 | O=C(O)c1ccc(N2N=C(c3cccnc3)/C(=C/c3ccc(N4CCCC4)cc3)C2=O)cc1 [Compound 309] | – | < 40
52 | COCC1=NN(c2ccc(C(=O)O)cc2)C(=O)/C1=C\c1ccc(N2CCN(C)CC2)cc1 [Compound 241] | – | < 40
53 | CC1=NN(c2ccc(S(N)(=O)=O)cc2)C(=O)C1=Cc1ccc(NC(=O)c2ccco2)cc1 [Compound 231] | – | < 10
54 | COc1cc(/C=C2\C(=O)N(c3ccccc3)N=C2C2CC2)ccc1OCc1ccccc1 [Compound 71] | – | < 10
55 | CCCCC1=NN(c2ccc(C(=O)O)cc2)C(=O)/C1=C\c1ccc2ccccc2c1 [Compound 336] | – | 10 to 20
56 | COC(=O)N1CCN(c2ccc(/C=C3\C(=O)N(c4ccccc4)N=C3C)cc2)CC1 [Compound 95] | – | < 40
57 | COC(=O)N1CCN(c2ccc(C=C3C(=O)N(c4ccc(C(=O)O)cc4)N=C3c3ccncc3)cc2)CC1 [Compound 344] | – | < 40
